≈ marks a conversion by molar mass, not a printed value. Read-outs that look alike come from different tables or passages of the source.
Assays:
C. krusei [1] = assay: Broth microdilution antifungal assay (CLSI M27-A2), clinical isolates; format: cell-based, Candida krusei
Description: (§1) Clinical isolates were provided by the Microbiology Department of the Medical School, UANL: isolates 97 and 98 of C. albicans, isolates 83 and 84 of C. glabrata, isolates 95 and 96 of C. parapsilosis, isolates 105 and 166 of C. tropicalis, and isolates 137 and 168 of C. krusei.
(§2) Inoculates from the above-mentioned isolates were prepared and growing on Sabouraud agar. The extracts were tested using microdilution assay according to the protocol M27-A2 defined by the Clinical Laboratory Standards Institute. Two clinical isolates were used for each species of Candida, and each test was made in duplicate. Isolates 83 and 84 of C. glabrata are resistant strains to fluconazole. Serial two-fold dilutions ranging from 2 to 500 μg/mL were made for all extracts, fractions, and isolated compounds. The minimal inhibitory concentration (MIC) was defined as the lowest tested extract concentration that inhibits 100% of organism growth compared to the growth of the drug-free control.

C. tropicalis [2] = assay: as above; format: cell-based, Candida tropicalis
Description: as §1, §2

[3] = In vitro cytotoxic assay on Vero cell line (MTT); format: cell-based; conditions: African green monkey, Vero cells, mean (n = 3) ± SD
Description: The cytotoxicity assay was performed by the 3-(4,5-dimethylthiazol-2-yl) 2,5-diphenyltetrazolium bromide (MTT) assay as previously described. The Vero cell line was maintained in DMEM supplemented with 2% FBS, streptomycin, and penicillin at 1%. All cell cultures were incubated at 37 °C in a humidified atmosphere of 5% CO2. Cells were harvested, counted, and transferred into 96 well plates and incubated for 24 h prior to the addition of test compounds. Serial dilutions of test samples were prepared by dissolving compounds in DMSO followed by dilution with DMEM to yield the final DMSO concentration in the assay well as 1%. Stock solutions of fractions and compounds 1, 2, and 3 were prepared at […] and diluted further to yield concentrations ranging from 2000–15.6 μg/mL. The plates were incubated for 48 h. MTT (3-[4,5-dimethylthiazol-2-yl]-2,5-diphenyltetrazolium bromide) (5 mg) was dissolved in 1 mL of Phosphate Buffer Solution (PBS) and 10 μL of it was added to each of the 96 wells. The plates were incubated at 37 °C for 3 h. The solution in each well-containing media, unbound MTT and dead cells were removed by suction and 100 μL of DMSO was added to each well. The plates were then shaken and optical density was recorded using a microplate reader at 540 nm. Doxorubicin was used as positive control and DMSO as solvent control. The CC50 was determined as the concentration of extract required reducing cell viability by 50%, taking as 100%, the untreated cells. The experiments were performed in triplicate for each extract. In parallel, we performed the same experiment using untreated cells as a control.

C. parapsilosis [4] = assay: Broth microdilution antifungal assay (CLSI M27-A2), clinical isolates; format: cell-based, Candida parapsilosis
Description: as §1, §2

Candida albicans = assay: as above; format: cell-based
Description: as §1, §2

C. glabrata = assay: as above; format: cell-based, Candida glabrata
Description: as §1, §2

[5] = Brine shrimp lethality bioassay; conditions: Artemia salina, in vivo; 24 h counts, mean (n = 3) ± SD
Description: In order to evaluate the toxicity of the compounds with antifungal activity obtained during separation, a test of lethality to Artemia salina brine shrimp was made. Concentrations of 1, 10, 100, and 500 ppm of each active fraction and each compound were tested. […] LC50 values greater than 200 ppm were considered non-toxic.

C. albicans = conditions: cited from earlier work
C. tropicalis [6] = system: C. tropicalis; design: method as in doi:10.1016/j.phytol.2015.02.006; conditions: C. tropicalis ATCC 750; cited from earlier work
C. parapsilosis [7] = conditions: C. parapsilosis ATCC 20019; cited from earlier work
Candida glabrata = conditions: cited from earlier work
C. krusei [8] = conditions: C. krusei ATCC 20298; cited from earlier work
[9] = Pichia kudriavzevii, Ck isolate 137, read-out: MIC
[10] = Pichia kudriavzevii, Ck isolate 168, read-out: MIC
[11] = Candida tropicalis, Ct isolate 105, read-out: MIC
[12] = Lodderomyces parapsilosis, Cp isolate 95, read-out: MIC
[13] = Lodderomyces parapsilosis, Cp isolate 96, read-out: MIC
[14] = Candida albicans, Ca isolate 97, read-out: MIC
[15] = Nakaseomyces glabratus, C. glabrata, isolate not stated, read-out: MIC
[16] = Nakaseomyces glabratus, Cg isolate 83, fluconazole-resistant clinical isolate, read-out: MIC
[17] = Nakaseomyces glabratus, Cg isolate 84, fluconazole-resistant clinical isolate, read-out: MIC

Compound	MIC (C. krusei [1]; [9])	MIC (C. krusei [1]; [10])	MIC (C. tropicalis [2]; [11])	MIC (C. tropicalis [2]; Ct isolate 166)	CC50 at 48 h [3]	MIC (C. parapsilosis [4]; [12])	MIC (C. parapsilosis [4]; [13])	MIC (Candida albicans; Ca isolate 98)	MIC (Candida albicans; [14])	MIC (C. glabrata; [15])	MIC (C. glabrata; [16])	MIC (C. glabrata; [17])	LC50 at 24 h [5]	further results
C[C@@H]1O[C@@H](Oc2c(-c3ccc(O)cc3)oc3cc(O)cc(O)c3c2=O)[C@H](O[C@@H]2OC[C@@H](O)[C@H](O)[C@H]2O)[C@H](O)[C@H]1O [Compound 3, kaempferol 3-O-α-L-rhamnopyranosyl-L-(2→1)-O-β-xylopyranoside]	> 500 µg/mL	> 500 µg/mL	> 500 µg/mL	>500 µg/mL	> 2000 µg/mL	> 500 µg/mL	> 500 µg/mL	>500 µg/mL	> 500 µg/mL	16 µg/mL (≈ 28.3 µM)	16 µg/mL (≈ 28.3 µM)	16 µg/mL (≈ 28.3 µM)	254.8 ± 0.024 µg/mL (≈ 451 µM)	–
Kaempferol-3-O-rutinoside [reference compound]	–	–	–	–	–	–	–	–	–	–	–	–	–	MIC (C. albicans; Candida albicans ATCC 14053 and ATCC10231): 500 µg/mL
C[C@@H]1O[C@@H](Oc2c(-c3ccc(O)c(O)c3)oc3cc(O)cc(O)c3c2=O)[C@H](O)[C@H](O)[C@H]1O [Compound 1, quercetin 3-O-α-L-rhamnoside]	–	–	–	>500 µg/mL	1660 ± 81 µg/mL (≈ 3700 µM)	–	–	500 µg/mL (≈ 1120 µM)	–	–	–	–	> 500 µg/mL	MIC (C. krusei [1]; Ck isolate 137): 500 µg/mL (≈ 1120 µM); MIC (C. krusei [1]; Ck isolate 168): 500 µg/mL (≈ 1120 µM); MIC (C. krusei [1]; Pichia kudriavzevii): 500 µg/mL (≈ 1120 µM); MIC (C. tropicalis [6]): below 250 μg/mL; MIC (C. albicans; C. albicans ATCC 18804): below 250 μg/mL; MIC (C. tropicalis [2]; Candida tropicalis): > 500 µg/mL; MIC (C. parapsilosis [7]): below 250 μg/mL; MIC (Candida glabrata; isolates 510, 493, 482, 531 of C. glabrata): 7.8 µg/mL (≈ 17.4 µM); MIC (C. krusei [8]): below 250 μg/mL; MIC (C. parapsilosis [4]; Cp isolate 95): 125 µg/mL (≈ 279 µM); MIC (C. parapsilosis [4]; Cp isolate 96): 125 µg/mL (≈ 279 µM); MIC (C. parapsilosis [4]; Lodderomyces parapsilosis): 125 µg/mL (≈ 279 µM); MIC (Candida albicans; Ca isolate 97): 500 µg/mL (≈ 1120 µM); MIC (Candida albicans; Candida albicans): 500 µg/mL (≈ 1120 µM); MIC (C. glabrata; Cg isolate 83, fluconazole-resistant clinical isolate): 16 µg/mL (≈ 35.7 µM); MIC (C. glabrata; Cg isolate 84, fluconazole-resistant clinical isolate): 16 µg/mL (≈ 35.7 µM); MIC (C. glabrata; Nakaseomyces glabratus): 16 µg/mL (≈ 35.7 µM)
OC(Cn1cncn1)(Cn1cncn1)c1ccc(F)cc1F [Fluconazol, reference compound]	32 µg/mL (≈ 104 µM)	4 µg/mL (≈ 13.1 µM)	2 µg/mL (≈ 6.53 µM)	2 µg/mL (≈ 6.53 µM)	–	0.5 µg/mL (≈ 1.63 µM)	1 µg/mL (≈ 3.27 µM)	4 µg/mL (≈ 13.1 µM)	4 µg/mL (≈ 13.1 µM)	–	32 µg/mL (≈ 104 µM)	63 µg/mL (≈ 206 µM)	–	–
O=c1c(O)c(-c2ccc(O)cc2)oc2cc(O)cc(O)c12 [kaempferol, reference compound]	–	–	–	–	–	–	–	–	–	–	–	–	–	MIC (Candida glabrata; six clinical isolates of Candida glabrata including one resistant to fluconazole): 31.5 µg/mL (≈ 110 µM)
C[C@@H]1O[C@@H](Oc2c(-c3ccc(O)c(O)c3)oc3cc(O)cc(O)c3c2=O)[C@H](O[C@@H]2OC[C@@H](O)[C@H](O)[C@H]2O)[C@H](O)[C@H]1O [Compound 2, quercetin 3-O-α-L-rhamnopyranosyl-L-(2→1)-O-β-xylopyranoside]	> 500 µg/mL	> 500 µg/mL	> 500 µg/mL	>500 µg/mL	> 2000 µg/mL	> 500 µg/mL	> 500 µg/mL	>500 µg/mL	> 500 µg/mL	63 µg/mL (≈ 109 µM)	63 µg/mL (≈ 109 µM)	63 µg/mL (≈ 109 µM)	322.8 ± 0.009 µg/mL (≈ 556 µM)	–
